Holding throughout (assay): relative viability (nuclei count vs DMSO), 5 days (fraction); higher = more cells survive
Compound in test [1]: CCN1C(=O)C2=CC(=C(N=C2N(C1=O)C3CC3)N)C(=O)N + Cc1nc(NC(=O)N2CCC[C@H]2C(N)=O)sc1-c1ccnc(C(C)(C)C(F)(F)F)c1 [Alpelisib] (partner 2 µM)
In a few lines: (§1)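 Lung cancer cell lines in 1536-well plates were dosed by pin tool the day after seeding, either with one drug alone or with a fixed anchor-drug dose plus five library-drug doses (not always all listed) in √10 steps. After 5 days, cells were fixed and their nuclei stained in one step (final 0.05% Triton X-100, 1% formaldehyde, 1 ug/ml Hoechst), then counted on 4× images. Relative viability is the nuclei count in treated wells divided by that in vehicle wells. Values are medians of duplicate plates.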

Compound in test [2]: CCN1C(=O)C2=CC(=C(N=C2N(C1=O)C3CC3)N)C(=O)N + O=C(CCCCCCC(=O)Nc1ccccc1)NO [Vorinostat] (partner 1 µM)
Summed up:
as §1

Compound in test [3]: CCN1C(=O)C2=CC(=C(N=C2N(C1=O)C3CC3)N)C(=O)N + CS(=O)(=O)N1CCN(Cc2cc3nc(-c4cccc5[nH]ncc45)nc(N4CCOCC4)c3s2)CC1 [Pictilisib] (partner 1 µM)
In a few lines:
as §1

Compound in test [4]: CCN1C(=O)C2=CC(=C(N=C2N(C1=O)C3CC3)N)C(=O)N + N=C(N)NC(=N)NCCc1ccccc1 [Phenformin] (partner 250 µM)
Summed up:
as §1

Compound in test [5]: CCN1C(=O)C2=CC(=C(N=C2N(C1=O)C3CC3)N)C(=O)N + Cc1cc(Nc2cc(N3CCN(C)CC3)nc(Sc3ccc(NC(=O)C4CC4)cc3)n2)n[nH]1 [Tozasertib] (partner 0.1 µM)
Summed up: as §1

For the cell line PC-3 [JPC-3], the relative viability in test [1] (first compound 0.253 µM) was determined as 1.06; in test [1] (first compound 0.8 µM) it was 1; in test [1] (first compound 2.53 µM), 0.981; in test [1] (first compound 8 µM), 1.16; in test [2] (first compound 0.253 µM) it was 0.93; in test [2] (first compound 2.53 µM) it was 1.22. Also, the relative viability in test [2] (first compound 8 µM) came to 1.08; in test [3] (first compound 0.253 µM) it was 0.729; in test [3] (first compound 0.8 µM) it was 0.696; in test [3] (first compound 2.53 µM), 0.69; in test [3] (first compound 8 µM) it was 0.737; in test [4] (first compound 0.253 µM) it was 0.468. Also, the relative viability was determined as 0.498 in test [4] (first compound 0.8 µM); 0.508 in test [4] (first compound 2.53 µM); 0.448 in test [4] (first compound 8 µM); 0.911 in test [5] (first compound 0.253 µM); 0.872 in test [5] (first compound 0.8 µM); 0.925 in test [5] (first compound 2.53 µM). Also, the relative viability in test [5] (first compound 8 µM) amounted to 0.869.

On to PC-14, for which the relative viability in test [1] (first compound 0.253 µM) was 0.928; in test [1] (first compound 0.8 µM), 0.942; in test [1] (first compound 2.53 µM) it was 0.913; in test [1] (first compound 8 µM) it was 1.06; in test [2] (first compound 0.253 µM), 0.621; in test [2] (first compound 0.8 µM), 0.743. In addition, the relative viability in test [2] (first compound 2.53 µM) is 0.679; in test [2] (first compound 8 µM), 0.779; in test [3] (first compound 0.253 µM) it was 0.73; in test [3] (first compound 0.8 µM), 0.58; in test [3] (first compound 2.53 µM), 0.758; in test [3] (first compound 8 µM) it was 0.879. Also, the relative viability worked out at 0.507 in test [4] (first compound 0.253 µM); 0.487 in test [4] (first compound 0.8 µM); 0.75 in test [4] (first compound 2.53 µM); 0.603 in test [4] (first compound 8 µM); 0.597 in test [5] (first compound 0.253 µM); 0.604 in test [5] (first compound 0.8 µM). The figures for the relative viability in test [5] (first compound 2.53 µM) and in test [5] (first compound 8 µM) were 0.525 and 0.64, respectively.

For the cell line RERF-LC-KJ, the relative viability worked out at 0.792 in test [1] (first compound 0.253 µM); 0.791 in test [1] (first compound 0.8 µM); 0.763 in test [1] (first compound 2.53 µM); 0.838 in test [1] (first compound 8 µM); 0.678 in test [2] (first compound 0.253 µM); 0.737 in test [2] (first compound 0.8 µM). Also, the relative viability was 0.807 in test [2] (first compound 2.53 µM); 0.838 in test [2] (first compound 8 µM); 0.488 in test [3] (first compound 0.253 µM); 0.455 in test [3] (first compound 0.8 µM); 0.508 in test [3] (first compound 2.53 µM); 0.55 in test [3] (first compound 8 µM). Moreover, the relative viability turned out to be 0.424 in test [4] (first compound 0.253 µM); 0.411 in test [4] (first compound 0.8 µM); 0.392 in test [4] (first compound 2.53 µM); 0.413 in test [4] (first compound 8 µM); 0.498 in test [5] (first compound 0.253 µM); 0.499 in test [5] (first compound 0.8 µM). Moreover, the figures for the relative viability in test [5] (first compound 2.53 µM) and in test [5] (first compound 8 µM) were 0.479 and 0.441, respectively.

Regarding SK-LU-1, the relative viability was found to be 1.1 in test [1] (first compound 0.253 µM); 0.992 in test [1] (first compound 0.8 µM); 1.04 in test [1] (first compound 2.53 µM); 1.38 in test [1] (first compound 8 µM); 0.699 in test [2] (first compound 0.253 µM); 0.755 in test [2] (first compound 0.8 µM). Besides, the relative viability in test [2] (first compound 2.53 µM) came out at 0.773; in test [2] (first compound 8 µM), 0.876; in test [3] (first compound 0.253 µM), 0.559; in test [3] (first compound 0.8 µM), 0.581; in test [3] (first compound 2.53 µM), 0.717; in test [3] (first compound 8 µM), 0.614. Further, the relative viability in test [4] (first compound 0.253 µM) was found to be 0.538; in test [4] (first compound 0.8 µM), 0.587; in test [4] (first compound 2.53 µM), 0.614; in test [4] (first compound 8 µM), 0.561; in test [5] (first compound 0.253 µM), 0.349; in test [5] (first compound 0.8 µM), 0.305. For the same cell line, the relative viability in test [5] (first compound 2.53 µM) stood at 0.324; in test [5] (first compound 8 µM) it was 0.306.

On to SK-MES-1, for which the relative viability in test [1] (first compound 0.253 µM) stood at 0.865; in test [1] (first compound 0.8 µM), 0.917; in test [1] (first compound 2.53 µM) it was 0.85; in test [1] (first compound 8 µM), 0.962; in test [2] (first compound 0.253 µM), 1.04; in test [2] (first compound 0.8 µM), 1.01. Also, the relative viability worked out at 1.04 in test [2] (first compound 2.53 µM); 1.08 in test [2] (first compound 8 µM); 0.358 in test [3] (first compound 0.253 µM); 0.403 in test [3] (first compound 0.8 µM); 0.323 in test [3] (first compound 2.53 µM); 0.37 in test [3] (first compound 8 µM). Besides, the relative viability was 0.628 in test [4] (first compound 0.253 µM); 0.687 in test [4] (first compound 0.8 µM); 0.662 in test [4] (first compound 2.53 µM); 0.642 in test [4] (first compound 8 µM); 0.902 in test [5] (first compound 0.253 µM); 0.931 in test [5] (first compound 0.8 µM). For the same cell line, the relative viability in test [5] (first compound 2.53 µM) was 0.85; in test [5] (first compound 8 µM), 0.918.

On to SW 1573, for which the relative viability is 0.731 in test [1] (first compound 0.253 µM); 0.844 in test [1] (first compound 0.8 µM); 0.644 in test [1] (first compound 2.53 µM); 0.849 in test [1] (first compound 8 µM); 0.824 in test [2] (first compound 0.253 µM); 0.848 in test [2] (first compound 0.8 µM). Moreover, the relative viability in test [2] (first compound 2.53 µM) worked out at 0.624; in test [2] (first compound 8 µM), 0.682; in test [3] (first compound 0.253 µM), 0.51; in test [3] (first compound 0.8 µM), 0.519; in test [3] (first compound 2.53 µM), 0.464; in test [3] (first compound 8 µM), 0.551. For the same cell line, the relative viability came out at 0.398 in test [4] (first compound 0.253 µM); 0.472 in test [4] (first compound 0.8 µM); 0.276 in test [4] (first compound 2.53 µM); 0.364 in test [4] (first compound 8 µM); 0.172 in test [5] (first compound 0.253 µM); 0.174 in test [5] (first compound 0.8 µM). Besides, the relative viability in test [5] (first compound 2.53 µM) came to 0.142; in test [5] (first compound 8 µM), 0.219.

UMC-11: the relative viability in test [1] (first compound 0.253 µM) worked out at 1.09; in test [1] (first compound 0.8 µM), 0.942; in test [1] (first compound 2.53 µM) it was 0.863; in test [1] (first compound 8 µM), 1.07; in test [2] (first compound 0.253 µM) it was 0.415; in test [2] (first compound 0.8 µM) it was 0.34. Also, the relative viability was determined as 0.373 in test [2] (first compound 2.53 µM); 0.408 in test [2] (first compound 8 µM); 0.891 in test [3] (first compound 0.253 µM); 0.865 in test [3] (first compound 0.8 µM); 0.767 in test [3] (first compound 2.53 µM); 0.853 in test [3] (first compound 8 µM). For the same cell line, the relative viability in test [4] (first compound 0.253 µM) was 0.322; in test [4] (first compound 0.8 µM) it was 0.319; in test [4] (first compound 2.53 µM), 0.304; in test [4] (first compound 8 µM), 0.293; in test [5] (first compound 0.253 µM) it was 0.2; in test [5] (first compound 0.8 µM), 0.213. The values for the relative viability in test [5] (first compound 2.53 µM) and in test [5] (first compound 8 µM) were 0.188 and 0.206, respectively.

Source of the values: the supplement of paper PMC10307832.
